Several values for one entry are separate records, joined by “and”; a condition that tells them apart may be missing. Equal entries are not always repeated. Structures can show the parent of a compound that is named as a salt.
Key:
[1] = system: Staphylococcus aureus MW2 (mecA+); experiment: IC50 (growth, competition assay); conditions: cefoxitin: subinhibitory
Outline: (§1)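 Two fluorescent S. aureus MW2 strains, one carrying and one lacking the resistance gene, were pre-induced, mixed 1:1 and grown unshaken in LB in 1536-well plates for 20 h at 37 °C and 90% humidity with a subinhibitory drug dose set each day. Compounds were tested on five- or nine-point 2-fold gradients in two dye-swapped replicates. DsRed (540/590) and GFP (485/520) signals were scaled per plate between the medians of single-strain controls, and No Treatment was then set to 0.5. For each strain, IC50 was taken as the dose that halved the No Treatment signal, or else the maximal signal.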

[2] = system: Staphylococcus aureus MW2 delta-mecA (mecA-); experiment: IC50 (growth, competition assay); conditions: cefoxitin: subinhibitory
Outline: as §1

| SMILES | IC50 ([1]; fluorescent label: DsRed) | IC50 ([1]; fluorescent label: GFP) | IC50 ([2]; fluorescent label: DsRed) | IC50 ([2]; fluorescent label: GFP) |
| --- | --- | --- | --- | --- |
| C=C1/C(=C\C=C2/CCC[C@]3(C)[C@@H]([C@H](C)CCCC(C)C)CC[C@@H]23)C[C@@H](O)C[C@@H]1O [Alfacalcidol] | > 150 µM | > 150 µM | > 150 µM | > 150 µM |
| CC1(C)S[C@@H]2[C@H](NC(=O)[C@H](N)c3ccc(O)cc3)C(=O)N2[C@H]1C(=O)O [Amoxicillin sodium (Amox)] | < 9.85 µM | 15.1 µM | < 9.85 µM | < 9.85 µM |
| CC1(C)S[C@@H]2[C@H](NC(=O)[C@H](N)c3ccccc3)C(=O)N2[C@H]1C(=O)O [Ampicillin sodium] | < 9.85 µM | 15.1 µM | < 9.85 µM | < 9.85 µM |
| COc1cc(NS(C)(=O)=O)ccc1Nc1c2ccccc2nc2ccccc12 [Amsacrine hydrochloride] | 106 µM | 97.2 µM | < 9.85 µM | < 9.85 µM |
| N#C[C@H](O[C@@H]1O[C@H](CO[C@@H]2O[C@H](CO)[C@@H](O)[C@H](O)[C@H]2O)[C@@H](O)[C@H](O)[C@H]1O)c1ccccc1 [Amygdalin] | 23.8 µM | 28.9 µM | < 9.85 µM | < 9.85 µM |
| C[C@@H](O[C@H]1OCCN(Cc2n[nH]c(=O)[nH]2)[C@H]1c1ccc(F)cc1)c1cc(C(F)(F)F)cc(C(F)(F)F)c1 [Aprepitant (MK-0869)] | 45 µM | 54.3 µM | 18.9 µM | 17.8 µM |
| C[C@H]1[C@H](C)CC[C@]2(C(=O)O)CC[C@]3(C)C(=CC[C@@H]4[C@@]5(C)C[C@@H](O)[C@H](O)[C@@](C)(CO)[C@@H]5CC[C@]43C)[C@H]12 [Asiatic acid] | 54.9 µM and 27.7 µM | 29.7 µM and 27.7 µM | 17 µM and 28 µM | 17.5 µM and 23.5 µM |
| CC(C)c1c(C(=O)Nc2ccccc2)c(-c2ccccc2)c(-c2ccc(F)cc2)n1CC[C@@H](O)C[C@@H](O)CC(=O)O [Atorvastatin calcium (Lipitor)] | 91 µM and 75.8 µM | 73.2 µM and 62.8 µM | 29 µM and 24.3 µM | 30.1 µM and 25.4 µM |
| CC(=O)OC[C@H]1O[C@@H]([S-])[C@H](OC(C)=O)[C@@H](OC(C)=O)[C@@H]1OC(C)=O.CCP(CC)CC.[Au+] [Auranofin] | < 9.85 µM | < 9.85 µM | < 9.85 µM | < 9.85 µM |
| CCOc1nc2cccc(C(=O)OCc3oc(=O)oc3C)c2n1Cc1ccc(-c2ccccc2-c2noc(=O)[nH]2)cc1 [Azilsartan Medoxomil (TAK-491)] | 48.4 µM | 67 µM | 11.9 µM | 10.2 µM |
| CC[C@H]1OC(=O)[C@H](C)[C@@H](O[C@H]2C[C@@](C)(OC)[C@@H](O)[C@H](C)O2)[C@H](C)[C@@H](O[C@@H]2O[C@H](C)C[C@H](N(C)C)[C@H]2O)[C@](C)(O)C[C@@H](C)CN(C)[C@H](C)[C@@H](O)[C@]1(C)O [Azithromycin (Zithromax)] | 22.8 µM | 15.7 µM | 0.827 µM | 1.29 µM |
| CC1(C)S[C@@H]2[C@H](NC(=O)[C@H](NC(=O)N3CCNC3=O)c3ccccc3)C(=O)N2[C@H]1C(=O)O [Azlocillin sodium salt] | < 9.85 µM | 27.7 µM | < 9.85 µM | < 9.85 µM |
| CC[C@H](C)[C@H](N)C1=N[C@H](C(=O)N[C@@H](CC(C)C)C(=O)N[C@H](CCC(=O)O)C(=O)N[C@H](C(=O)N[C@H]2CCCCNC(=O)[C@H](CC(N)=O)NC(=O)[C@@H](CC(=O)O)NC(=O)[C@H](Cc3cnc[nH]3)NC(=O)[C@@H](Cc3ccccc3)NC(=O)[C@H]([C@@H](C)CC)NC(=O)[C@@H](CCCN)NC2=O)[C@@H](C)CC)CS1 [BACITRACIN] | > 150 µM | > 150 µM | 37.8 µM | 59.4 µM |
| Cc1onc(-c2ccccc2)c1C(=O)N[C@@H]1C(=O)N2[C@@H]1SC(C)(C)[C@@H]2C(=O)O [BACTOCILL] | < 9.85 µM | < 9.85 µM | < 9.85 µM | < 9.85 µM |
| C/C(=C\C(=O)OCCCCCCCCC(=O)O)C[C@@H]1OC[C@H](C[C@@H]2O[C@H]2[C@@H](C)[C@H](C)O)[C@@H](O)[C@H]1O [BACTROBAN] | < 9.85 µM | < 9.85 µM | < 9.85 µM | < 9.85 µM |
| Cc1ccc(S(=O)(=O)C=CC#N)cc1 [BAY 11-7082 (BAY 11-7821)] | < 9.85 µM | 9.88 µM | < 9.85 µM | < 9.85 µM |
| Cc1cc(-n2c(=O)[nH]c(=O)n(C)c2=O)ccc1Oc1ccc(SC(F)(F)F)cc1 [BAYCOX] | 70.8 µM | 113 µM | 59.8 µM | 32 µM |
| CCN1CCN(c2cc3c(cc2F)c(=O)c(C(=O)O)cn3C2CC2)CC1 [BAYTRIL] | < 9.85 µM | < 9.85 µM | < 9.85 µM | < 9.85 µM |
| O=c1[nH]nc(Sc2ncc([N+](=O)[O-])s2)n1-c1ccc2c(c1)OCCO2 [BI 78D3] | < 9.85 µM | 11.9 µM | < 9.85 µM | < 9.85 µM |
| CC[C@@H]1C(=O)N(C)c2cnc(Nc3ccc(C(=O)NC4CCN(C)CC4)cc3OC)nc2N1C1CCCC1 [BI 2536] | 106 µM | 112 µM | 21.6 µM | 30.1 µM |
| CC[C@H]1OC(=O)[C@H](C)[C@@H](O[C@H]2C[C@@](C)(OC)[C@@H](O)[C@H](C)O2)[C@H](C)[C@@H](O[C@@H]2O[C@H](C)C[C@H](N(C)C)[C@H]2O)[C@](C)(OC)C[C@@H](C)C(=O)[C@H](C)[C@@H](O)[C@]1(C)O [BIAXIN] | < 9.85 µM | < 9.85 µM | < 9.85 µM | < 9.85 µM |
| C/C(=C\C(=O)Nc1ccccc1C(=O)O)c1ccc2ccccc2c1 [BIBR1532] | < 9.85 µM | 12.3 µM | < 9.85 µM | < 9.85 µM |
| O=Nc1c(-c2c(O)[nH]c3cc(Br)ccc23)[nH]c2ccccc12 [BIO] | < 9.85 µM | < 9.85 µM | < 9.85 µM | < 9.85 µM |
| CC(C)(c1ccc(O)cc1)c1ccc(O)cc1 [BISPHENOL A] | 42.4 µM | 64.7 µM | < 9.85 µM | < 9.85 µM |
| CC[C@@H](C(=O)[C@@H](C)[C@@H](O)[C@H](C)CCc1ccc(C)c(O)c1C(=O)O)[C@H]1O[C@](CC)([C@H]2CC[C@](O)(CC)[C@H](C)O2)C[C@@H]1C [BOVOTEC] | < 9.85 µM | < 9.85 µM | < 9.85 µM | < 9.85 µM |
| C=C(NC(=O)C(=C)NC(=O)c1csc(C2=N[C@@H]3c4csc(n4)[C@H]4NC(=O)c5csc(n5)[C@H]([C@](C)(O)[C@@H](C)O)NC(=O)[C@H]5CSC(=N5)/C(=C/C)NC(=O)[C@H]([C@@H](C)O)NC(=O)c5csc(n5)[C@]3(CC2)NC(=O)[C@H](C)NC(=O)C(=C)NC(=O)[C@H](C)NC(=O)[C@H]([C@@H](C)CC)N[C@@H]2C=Cc3c([C@H](C)O)cc(nc3[C@H]2O)C(=O)O[C@@H]4C)n1)C(N)=O [BRYAMYCIN] | < 9.85 µM | < 9.85 µM | < 9.85 µM | < 9.85 µM |

— the supplement of paper PMC7695840
